Laboratory results taken from PubChem BioAssay (NCI).
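GI50 is the concentration that inhibits growth by half. The concentration for full growth arrest is given as TGI.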

Key:
Test in all cases: NCI-60 cell line screen, 384-well format
T-47D breast = tested on: T-47D breast
RXF 393 renal = tested on: RXF 393 renal
CCRF-CEM leukemia = tested on: CCRF-CEM leukemia
IGROV1 ovarian = tested on: IGROV1 ovarian
OVCAR-3 ovarian = tested on: OVCAR-3 ovarian
EKVX NSCLC = tested on: EKVX NSCLC
SNB-19 CNS = tested on: SNB-19 CNS
SK-MEL-28 melanoma = tested on: SK-MEL-28 melanoma
HT29 colon = tested on: HT29 colon
MCF7 breast = tested on: MCF7 breast
UACC-257 melanoma = tested on: UACC-257 melanoma
NCI-H522 lung = tested on: NCI-H522 lung
786-0 renal = tested on: 786-0 renal

Question: Which results are given for `N=C(N)c1ccc2nc(-c3cc(CC(=O)N[C@@H](CC(=O)O)C(=O)O)cc(-c4cc(S(N)(=O)=O)ccc4O)c3O)[nH]c2c1`?
Answer: GI50 (T-47D breast): > 100 µM; TGI (T-47D breast): > 100 µM; GI50 (RXF 393 renal): > 100 µM; TGI (RXF 393 renal): > 100 µM; GI50 (CCRF-CEM leukemia): > 100 µM; TGI (CCRF-CEM leukemia): > 100 µM; GI50 (IGROV1 ovarian): > 100 µM; TGI (IGROV1 ovarian): > 100 µM; GI50 (OVCAR-3 ovarian): > 100 µM; TGI (OVCAR-3 ovarian): > 100 µM; GI50 (EKVX NSCLC): > 100 µM; TGI (EKVX NSCLC): > 100 µM; GI50 (SNB-19 CNS): > 100 µM; TGI (SNB-19 CNS): > 100 µM; GI50 (SK-MEL-28 melanoma): > 100 µM; TGI (SK-MEL-28 melanoma): > 100 µM; GI50 (HT29 colon): > 100 µM; TGI (HT29 colon): > 100 µM; GI50 (MCF7 breast): > 71.5 µM; TGI (MCF7 breast): > 100 µM; GI50 (UACC-257 melanoma): > 100 µM; TGI (UACC-257 melanoma): > 100 µM; GI50 (NCI-H522 lung): > 100 µM; TGI (NCI-H522 lung): > 100 µM; GI50 (786-0 renal): > 100 µM; TGI (786-0 renal): > 100 µM
